Test [1] deals with T1, Adenosine receptor A3 (Homo sapiens, UniProt P0DMS8).
T1 sequence (P0DMS8 whole entry): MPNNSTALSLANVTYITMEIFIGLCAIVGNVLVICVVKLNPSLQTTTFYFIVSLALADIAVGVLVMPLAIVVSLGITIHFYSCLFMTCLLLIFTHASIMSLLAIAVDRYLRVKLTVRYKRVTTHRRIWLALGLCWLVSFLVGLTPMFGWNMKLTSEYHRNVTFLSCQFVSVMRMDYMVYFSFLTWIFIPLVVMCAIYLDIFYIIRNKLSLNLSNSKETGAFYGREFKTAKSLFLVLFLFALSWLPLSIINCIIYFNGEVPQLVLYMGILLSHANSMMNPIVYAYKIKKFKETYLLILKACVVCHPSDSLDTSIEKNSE
Description: Binding affinity to recombinant human adenosine A3 receptor

The target of test [2] is T2, Adenosine receptor A1 (Rattus norvegicus, UniProt P25099).
T2 sequence (P25099 whole entry): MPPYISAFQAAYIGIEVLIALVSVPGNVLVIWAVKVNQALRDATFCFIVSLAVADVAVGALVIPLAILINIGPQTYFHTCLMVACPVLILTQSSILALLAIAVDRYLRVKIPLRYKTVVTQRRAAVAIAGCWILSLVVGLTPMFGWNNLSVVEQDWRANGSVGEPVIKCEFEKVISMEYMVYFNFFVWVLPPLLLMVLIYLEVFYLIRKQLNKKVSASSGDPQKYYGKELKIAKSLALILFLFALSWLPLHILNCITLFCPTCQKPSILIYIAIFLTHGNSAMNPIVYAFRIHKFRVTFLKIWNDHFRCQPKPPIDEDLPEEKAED
Put plainly: Binding affinity to rat adenosine A1 receptor.

Test [3] addresses T3, Adenosine receptor A2a (Rattus norvegicus, UniProt P30543). Put plainly: Binding affinity to rat adenosine A2A receptor.
Test [4] concerns the target T4, Adenosine receptor A2a (Homo sapiens, UniProt P29274).
Description: Binding affinity to recombinant human adenosine A2A receptor
In test [5] the target is T5, Adenosine receptor A1 (Homo sapiens, UniProt P30542).
T5 sequence (P30542 whole entry): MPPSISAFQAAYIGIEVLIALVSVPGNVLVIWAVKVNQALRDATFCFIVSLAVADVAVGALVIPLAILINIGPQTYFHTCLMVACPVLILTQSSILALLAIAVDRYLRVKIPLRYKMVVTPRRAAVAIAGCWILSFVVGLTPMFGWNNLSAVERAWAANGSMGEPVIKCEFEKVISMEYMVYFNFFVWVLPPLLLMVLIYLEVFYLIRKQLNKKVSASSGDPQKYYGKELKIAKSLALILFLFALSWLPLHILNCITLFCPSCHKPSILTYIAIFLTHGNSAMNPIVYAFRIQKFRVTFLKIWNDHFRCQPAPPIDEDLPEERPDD
Description: Binding affinity to recombinant human adenosine A1 receptor

In test [6] the target is T6, Adenosine receptor A2b (Homo sapiens, UniProt P29275).
T6 sequence (P29275 whole entry): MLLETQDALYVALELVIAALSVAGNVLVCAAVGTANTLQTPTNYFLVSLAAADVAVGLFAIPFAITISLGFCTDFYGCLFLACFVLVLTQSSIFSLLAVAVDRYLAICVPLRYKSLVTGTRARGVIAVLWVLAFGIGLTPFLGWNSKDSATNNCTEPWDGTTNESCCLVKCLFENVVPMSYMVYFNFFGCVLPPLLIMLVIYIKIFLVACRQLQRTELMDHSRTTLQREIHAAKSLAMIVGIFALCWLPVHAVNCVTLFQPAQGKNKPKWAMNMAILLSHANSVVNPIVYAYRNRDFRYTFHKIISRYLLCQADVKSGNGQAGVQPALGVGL
Description: Binding affinity to recombinant human adenosine A2B receptor

Test [7] deals with T4, Adenosine receptor A2a. Kind of test: Displacement of [3H]ZM-241385 from recombinant human adenosine A2A receptor expressed in HeLa cells at 0.1 uM.
In test [8] the target is T7, Adenosine receptor A2b (Homo sapiens) (UniProt P29275).
T7 sequence (whole entry): T6 sequence (P29275 whole entry)
Put plainly: Displacement of [3H]DPCPX from recombinant human adenosine A2B receptor expressed in HEK293 cells at 0.01 uM. In general terms: Loss of bound radioactivity is the signal in a displacement assay; it reports binding, not function.

The target of test [9] is T7, Adenosine receptor A2b (Homo sapiens). Put plainly: Displacement of [3H]DPCPX from recombinant human adenosine A2B receptor expressed in HEK293 cells at 0.1 uM. The format is cell-based.
For test [10], the target named is T3, Adenosine receptor A2a. Put plainly: Antagonist potency against adenosine A2A receptor of Sprague-Dawley rat aortic smooth muscle. The format is functional. The note with it: read-out: pA2 (converted).
In test [11] the target is T8, Adenosine receptor A3 (Homo sapiens) (UniProt P0DMS8).
T8 sequence (whole entry): T1 sequence (P0DMS8 whole entry)
Put plainly: Displacement of [3H]NECA from recombinant human adenosine A3 receptor expressed in HeLa cells at 1uM. The format is cell-based.

Results on 22 compounds are retold here after ChEMBL document CHEMBL1148617, “Design, synthesis, and structure-activity relationships of 1-,3-,8-, and 9-substituted-9-deazaxanthines at the human A2B adenosine receptor” (J Med Chem, 2006).

A word on the Ki: it is the equilibrium dissociation constant of an inhibitor or competing ligand from its target. A lower Ki goes with tighter binding. By inhibition is commonly meant the relative decrease from the control value, in per cent.

T3 sequence (P30543 whole entry): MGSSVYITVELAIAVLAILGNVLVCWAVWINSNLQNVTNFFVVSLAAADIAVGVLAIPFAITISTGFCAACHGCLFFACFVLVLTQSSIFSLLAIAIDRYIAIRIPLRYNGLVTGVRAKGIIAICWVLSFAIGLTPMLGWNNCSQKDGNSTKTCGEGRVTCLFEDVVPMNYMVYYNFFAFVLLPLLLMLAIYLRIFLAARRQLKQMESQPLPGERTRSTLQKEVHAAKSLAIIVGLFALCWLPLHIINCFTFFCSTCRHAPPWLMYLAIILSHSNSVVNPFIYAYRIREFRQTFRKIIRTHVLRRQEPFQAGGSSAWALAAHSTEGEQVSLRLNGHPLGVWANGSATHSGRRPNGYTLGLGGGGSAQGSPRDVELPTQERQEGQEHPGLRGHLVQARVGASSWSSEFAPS
T4 sequence (P29274 whole entry): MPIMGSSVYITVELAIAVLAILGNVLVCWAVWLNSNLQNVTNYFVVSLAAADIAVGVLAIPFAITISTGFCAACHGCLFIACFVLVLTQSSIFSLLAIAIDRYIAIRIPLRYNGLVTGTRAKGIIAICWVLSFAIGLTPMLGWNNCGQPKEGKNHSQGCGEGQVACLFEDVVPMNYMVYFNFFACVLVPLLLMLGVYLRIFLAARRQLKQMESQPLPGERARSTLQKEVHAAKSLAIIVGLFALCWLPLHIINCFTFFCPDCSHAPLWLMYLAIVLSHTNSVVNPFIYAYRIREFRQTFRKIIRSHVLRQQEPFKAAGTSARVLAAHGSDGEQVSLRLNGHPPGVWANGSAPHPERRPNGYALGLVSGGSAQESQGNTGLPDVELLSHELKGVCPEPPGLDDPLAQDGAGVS

With `CCCn1c(=O)c2[nH]c(-c3ccc(OCC(=O)O)cc3)nc2n(CCC)c1=O`, the figures for the Ki in test [1], in test [2] and in test [3] were 3.98 µM, 63.1 nM and 2240 nM, respectively.

On to `CCCn1c(=O)c2[nH]c(-c3ccc(OCC(=O)Nc4ccccc4)cc3)nc2n(CCC)c1=O`, for which the Ki in test [4] was 2.24 nM; in test [5] it was 40.7 nM; in test [6], 1.51 nM.

Consider `Cn1c(=O)c2[nH]c(-c3ccc(OCC(=O)Nc4ccccc4)cc3)cc2n(C)c1=O`, for which the inhibition in [7] came out at 10%; in [8], 44%; in test [9], 91%. Affinity in [5] was put at a Ki of 240 nM.

Turning to `CCCn1c(=O)c2[nH]c(-c3ccc(OCC(=O)Nc4ccc(F)cc4)cc3)nc2n(CCC)c1=O`, the Ki in test [5] is 18.2 nM.

On to `COc1cc(OCC(=O)Nc2ccc(Br)cc2)ccc1-c1cc2c([nH]1)c(=O)n(C)c(=O)n2C`, for which the Ki was 10.7 µM in test [1] and 32.4 nM in test [5]. Besides, the inhibition in test [7] is 20%; in test [8] it was 60%; in [9], 83%. The Kb in test [10] is 933 nM.

As for `CCCn1c(=O)c2[nH]c(-c3ccc(OCC(=O)NCc4ccccc4)cc3)nc2n(CCC)c1=O`, the values for the Ki in test [1], in [4] and in test [5] were 0.141 µM, 20 nM and 63.1 nM, respectively.

Regarding `CCCn1c(=O)c2[nH]c(-c3ccc(OCC(=O)Nc4ccc(Br)cc4)cc3)nc2n(CCC)c1=O`, the figures for the Ki in [1], in test [4] and in [6] were 2.34 µM, 1660 nM and 2.4 nM, respectively.

As for `CCCn1c(=O)c2nc(-c3ccc(OCC(=O)Nc4ccc(C)cc4)cc3)[nH]c2n(CCC)c1=O`, the Ki in [3] was 129 nM; in [6], 1.91 nM.

For the compound `Cn1c(=O)c2[nH]c(-c3ccc(OCC(=O)Nc4ccc(C#N)cc4)cc3)cc2n(C)c1=O`, the inhibition in [7] was 47%; in [8], 60%; in test [9], 91%. The Kb in test [10] is 43.7 nM. Moreover, in [5], the Ki is 4.27 nM.

Take `CCCn1c(=O)c2[nH]c(-c3ccc(OCC(=O)Nc4ccc(-c5ccccc5)cc4)cc3)cc2n(C)c1=O`: the values for the Ki in test [1] and in test [5] were 12.3 µM and 11 nM, respectively. Also, the inhibition in test [7] is 15%; in test [8], 39%; in [9], 93%. Further, in test [10], the Kb was 468 nM.

With `Cn1c(=O)c2[nH]c(-c3ccc(OCC(=O)Nc4ccc(F)cc4)cc3)cc2n(C)c1=O`, the inhibition in test [7] was 41%; in test [8] it was 72%; in test [9], 100%; in test [11], 20%. Moreover, the Kb in [10] is 51.3 nM. In [5], this compound showed a Ki of 14.8 nM.

On to `CCCn1c(=O)c2[nH]c(-c3ccc(OCC(=O)Nc4ccc(OC)cc4)cc3)c(Cl)c2n(CCC)c1=O`, for which the values for the Ki in [4] and in test [6] were 44.7 nM and 27.5 nM, respectively. The inhibition is 45% in test [7], 15% in [8] and 70% in [9].

For the compound `Cn1c(=O)c2[nH]c(-c3ccc(OCC(=O)Nc4ccc(Br)cc4)cc3)cc2n(C)c1=O`, the inhibition in [7] was determined as 12%; in test [8], 84%; in test [9], 90%; in test [11], 8%. In test [10], the Kb is 126 nM. Further, the affinity in test [5], expressed as Ki, was 18.2 nM.

For the compound `CCCn1c(=O)n(C)c(=O)c2[nH]c(-c3ccc(OCC(=O)Nc4ccc(F)cc4)cc3)cc21`, the figures for the Ki in [4] and in test [6] were 112 nM and 9.55 nM, respectively. Moreover, the inhibition worked out at 24% in [7], 43% in test [8] and 93% in test [9].

As to `CN(Cc1ccccc1)C(=O)COc1ccc(-c2cc3c([nH]2)c(=O)n(C)c(=O)n3C)cc1`, the Ki is 1020 nM in test [4] and 55 nM in test [6]. The inhibition in [7] is 14%; in test [8] it was 10%; in test [9], 67%.

Consider `CCCn1c(=O)n(C)c(=O)c2[nH]c(-c3ccc(OCC(=O)Nc4ccccc4)cc3)cc21`, for which the results for the Ki in test [4] and in test [6] were 195 nM and 21.4 nM, respectively. In addition, the values for the inhibition in test [7], in [8] and in test [9] were 40%, 33% and 80%, respectively.

With `CCCn1c(=O)c2[nH]c(-c3ccc(OCC(=O)Nc4ccc(C)cc4)cc3)c(Cl)c2n(CCC)c1=O`, the Ki in test [4] is 32.4 nM; in test [6] it was 18.6 nM. In addition, the inhibition in test [7] worked out at 50%; in test [8] it was 38%; in test [9], 78%.

As to `CCCn1c(=O)c2[nH]c(-c3ccc(OCC(=O)Nc4ccc(I)cc4)cc3)cc2n(CCC)c1=O`, the Ki in test [4] is 158 nM; in test [6], 19.5 nM. Also, the inhibition in test [7] worked out at 57%; in test [8], 30%; in test [9], 80%.

For the compound `CC(Oc1ccc(-c2cc3c([nH]2)c(=O)n(C)c(=O)n3C)cc1)C(=O)Nc1ccccc1` (stereo not given), the Ki was 0.912 µM in test [1], 47.9 nM in [4], 7.76 nM in test [5] and 4.79 nM in [6]. In addition, the inhibition amounted to 60% in [7], 73% in [8] and 99% in test [9].

`CCCn1c(=O)c2[nH]c(-c3ccc(OCC(=O)Nc4ccc(CC(=O)OCC)cc4)cc3)cc2n(CCC)c1=O`: the figures for the Ki in test [4] and in test [6] were 240 nM and 60.3 nM, respectively. In addition, the figures for the inhibition in [7], in test [8] and in [9] were 10%, 32% and 58%, respectively.

On to `CCCn1c(=O)c2[nH]c(-c3ccc(OCC(=O)Nc4ccccc4)cc3)c(Br)c2n(CCC)c1=O`, for which the results for the Ki in test [4] and in test [6] were 42.7 nM and 24.5 nM, respectively. Besides, the inhibition was 54% in [7], 16% in test [8] and 73% in test [9].

Turning to `CCCn1c(=O)c2[nH]c(-c3ccc(OCC(=O)Nc4ccc(C(C)(C)C)cc4)cc3)cc2n(CCC)c1=O`, the values for the Ki in test [4] and in test [6] were 79.4 nM and 7.94 nM, respectively. For the same compound, the inhibition was determined as 47% in test [7], 51% in test [8] and 94% in test [9].
